In patent US12336994B2, “Alpha polyglutamated tetrahydrofolates and uses thereof” (L.E.A.F. HOLDINGS GROUP LLC, priority 2018, dated 2025):

Key:
[1] = system: NCI H2342 non-small cell lung cancer (NSCLC), adenocarcinoma subtype; assay: CellTiter-Glo (CTG) luminescent cell viability assay, NCI H2342; format: cell-based, Human; conditions: NCI H2342, 48 hours of treatment
Description: (§1) Luciferase luminescence were recorded for each well.

[2] = system: HT-29 (colon cancer); assay: CellTiter-Glo (CTG) luminescent cell viability assay, HT-29; format: cell-based, Human; conditions: HT-29, 48 hours
Description: as §1

[3] = system: AML12 liver cells; assay: Toxicity on AML12 non-cancerous liver cells; format: cell-based; conditions: all doses studied (16 nM to 128 nM), 48 hours
Text: (§2) Methodologies used for cell line AML12 (non-cancerous liver cells) and CCD841 (non-cancerous colon epithelial cells) are similar to the methods used for cancer cells.

[4] = system: CCD841 colon epithelium cells; assay: Toxicity on CCD841 non-cancerous colon epithelial cells; format: cell-based; conditions: all concentrations tested (16 nM, 32 nM, 64 nM, 128 nM), 48 hours
Text: as §2

SMILES | potency (cytotoxic activity, dose response) compared among test articles and pemetrexed ([1]; listed as free L gamma G6) | potency (cytotoxic activity, dose response) compared among test articles and pemetrexed ([1]; listed as free pemetrexed gG6) | potency (cytotoxic activity, dose response) compared among test articles and pemetrexed ([2]; listed as free L gamma G6) | potency (cytotoxic activity, dose response) compared among test articles and pemetrexed ([2]; listed as free pemetrexed gG6) | reduction in the AML12 liver cell counts [3] | decrease in the number of CCD841 colon epithelium cells [4]
Nc1nc2[nH]cc(CCc3ccc(C(=O)N[C@@H](CCC(=O)N[C@@H](CCC(=O)N[C@@H](CCC(=O)N[C@@H](CCC(=O)N[C@@H](CCC(=O)N[C@@H](CCC(=O)O)C(=O)O)C(=O)O)C(=O)O)C(=O)O)C(=O)O)C(=O)O)cc3)c2c(=O)[nH]1 [gG6, free pemetrexed L-gamma hexaglutamate] | lowest potency | least potent | lowest potency | least potent |  | 
Nc1nc2[nH]cc(CCc3ccc(C(=O)N[C@@H](CCC(=O)O)C(=O)O)cc3)c2c(=O)[nH]1 [pemetrexed] |  |  |  |  | approximately 40% | ≥ 50%
